Molecules are shown by their SMILES. pIC50: −log10 of the molar value. A value given as a limit tells only on which side of the number the result lay.

The values below come from BindingDB's records for doi:10.1021/jm030585i (Merck Research Laboratories, 2004).

The target of the test is T1, Mineralocorticoid receptor (Rattus norvegicus, UniProt P22199).
T1 sequence (P22199 whole entry): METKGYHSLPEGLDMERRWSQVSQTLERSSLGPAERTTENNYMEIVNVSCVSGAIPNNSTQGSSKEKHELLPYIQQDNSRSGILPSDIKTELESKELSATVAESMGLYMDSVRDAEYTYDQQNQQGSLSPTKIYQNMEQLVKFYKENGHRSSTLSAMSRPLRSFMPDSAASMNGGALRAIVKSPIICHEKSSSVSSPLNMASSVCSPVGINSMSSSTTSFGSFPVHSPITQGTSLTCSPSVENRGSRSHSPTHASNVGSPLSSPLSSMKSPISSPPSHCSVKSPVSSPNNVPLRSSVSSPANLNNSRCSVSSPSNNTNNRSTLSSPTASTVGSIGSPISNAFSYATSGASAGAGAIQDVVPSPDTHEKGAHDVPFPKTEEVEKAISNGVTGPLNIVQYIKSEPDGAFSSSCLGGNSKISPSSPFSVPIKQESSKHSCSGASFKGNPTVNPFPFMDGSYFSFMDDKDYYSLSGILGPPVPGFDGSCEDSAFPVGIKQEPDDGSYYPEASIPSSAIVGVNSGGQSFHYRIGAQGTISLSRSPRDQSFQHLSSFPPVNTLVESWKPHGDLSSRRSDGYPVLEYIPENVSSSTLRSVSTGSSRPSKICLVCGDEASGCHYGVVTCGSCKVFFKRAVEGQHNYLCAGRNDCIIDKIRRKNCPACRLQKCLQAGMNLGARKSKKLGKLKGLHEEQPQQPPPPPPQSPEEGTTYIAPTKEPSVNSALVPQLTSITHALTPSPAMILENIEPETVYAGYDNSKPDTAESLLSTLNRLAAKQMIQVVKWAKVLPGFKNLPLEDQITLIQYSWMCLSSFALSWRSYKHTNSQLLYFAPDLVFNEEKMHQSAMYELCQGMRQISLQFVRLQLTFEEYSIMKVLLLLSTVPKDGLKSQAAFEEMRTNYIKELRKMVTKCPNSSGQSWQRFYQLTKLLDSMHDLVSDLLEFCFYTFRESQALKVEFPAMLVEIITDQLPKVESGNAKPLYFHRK
Consider `C[C@]12Cc3cnn(-c4ccc(F)cc4)c3C=C1CCC[C@@H]2[C@](C)(O)c1ccc(F)cc1` [(1S)-1-[(4aR,5S)-1-(4-fluorophenyl)-4a-methyl-1H,4H,4aH,5H,6H,7H,8H-cyclohexa[f]indazol-5-yl]-1-(4-fluorophenyl)ethan-1-ol], for which the pIC50 (commonly −log10 of the IC50, conventionally taken in molar units) is less than 5.30.

For the molecule `C=CCC[C@H](O)[C@H]1CCCC2=Cc3c(cnn3-c3ccc(F)cc3)C[C@@]21C` [(1S)-1-[(4aR,5S)-1-(4-fluorophenyl)-4a-methyl-1H,4H,4aH,5H,6H,7H,8H-cyclohexa[f]indazol-5-yl]pent-4-en-1-ol], the pIC50 was less than 5.30.

As to `COc1cc([C@H](O)[C@H]2CCCC3=Cc4c(cnn4-c4ccc(F)cc4)C[C@@]32C)cc(F)c1F` [(R)-[(4aR,5S)-1-(4-fluorophenyl)-4a-methyl-1H,4H,4aH,5H,6H,7H,8H-cyclohexa[f]indazol-5-yl](3,4-difluoro-5-methoxyphenyl)methanol], the pIC50 is less than 5.30.

In turn, `C[C@]12Cc3cnn(-c4ccc(F)cc4)c3C=C1CCC[C@@H]2[C@@H](O)c1ccccc1` [(R)-[(4aR,5S)-1-(4-fluorophenyl)-4a-methyl-1H,4H,4aH,5H,6H,7H,8H-cyclohexa[f]indazol-5-yl](phenyl)methanol] had a pIC50 of less than 5.30.

For `C[C@]12Cc3cnn(-c4ccc(F)cc4)c3C=C1CCC[C@@H]2[C@@H](O)c1ccc(F)cc1` [BMCL173354 benzo[f]indazole, 6], the pIC50 was less than 5.30.

Regarding `C[C@]12Cc3cnn(-c4ccc(F)cc4)c3C=C1CCC[C@@H]2[C@H](O)c1ccc(F)cc1` [BMCL173354 benzo[f]indazole, 7], the negative logarithm of the IC50 (pIC50) was less than 5.30.
